From PMC11337205, “Unraveling Interspecies Differences in the Phase I Hepatic Metabolism of Alternariol and Alternariol Monomethyl Ether: Closing Data Gaps for a Comprehensive Risk Assessment” (Chemical Research in Toxicology, 2024)

Legend:
[1] = Pattern of oxidative metabolites in porcine LMs by HR-MS; assay type: in vitro ADME, pig; conditions: for Relative peak area of oxidative metabolite: porcine LMs, normalized to the sum of measured peak areas
Protocol: (§1) The kinetics of the phase I metabolism of AOH and AME was investigated by incubating human, rat (both 1 mg protein/mL), and porcine LMs (2 mg protein/mL) with 1, 10, 20, 50, and 100 μM AOH or 1, 10, 20, and 50 μM AME based on the protocol by Al-Subeihi et al.[34] The incubation solution contained a final concentration of 3 mM NADPH and 1 mM ascorbic acid in 200 mM Tris–HCl (pH 7.4). After preincubation (37 °C, 1 min, mixing at 250–300 rpm), the toxin stock was added in a 1:100 dilution, resulting in a total DMSO content of 1% and the desired toxin concentration. DMSO was selected for this assay because it is the least inhibitory of the solvents studied by Busby et al. on CYP1A1,[35] the primary enzyme involved in the hydroxylation of AOH and AME.[26] The well-established solubility of the test compounds in DMSO and DMSO-containing aqueous buffers facilitated laboratory work and ensured consistency with existing literature, thereby improving the comparability of results across studies, including those of Pfeiffer and colleagues.[25] In a preliminary investigation, incubation times of 5 and 10 min were chosen because they fall within the linear range of the transformation rate–time relationship, thereby ensuring initial rate conditions (Figure S1). When the selected incubation time (0–10 min) passed, one part of the sample was pipetted into two parts of ice-cold extraction solvent (acetonitrile–methanol, 1:1, v/v) for reaction termination. Subsequently, the samples were placed into the freezer (−20 °C) for at least an hour, centrifuged (15 min, 18,000g, 4 °C), and further diluted in methanol–water (3:7, v/v) prior to LC–MS measurements. In the solvent control, the toxin was substituted with DMSO in the incubation solution. Control incubations were performed without the cofactor NADPH or with heat-inactivated microsomes (98 °C, 10 min, mixing at 300 rpm).
Pooled high-resolution MS (HR-MS) samples were analyzed on a Vanquish UHPLC system (Thermo Fisher Scientific, Waltham, MA, USA) connected to a dual-pressure linear trap-quadrupole Orbitrap mass analyzer (Velos ETD, Thermo Fisher Scientific, Waltham, MA, USA). The heated ESI interface (source heater temperature: 400 °C) was operated in both positive and negative modes. The mobile and stationary phases were the same as those for the targeted analysis. The column compartment temperature was kept at 40 °C. A multistep gradient was applied at a flow rate of 0.4 mL/min and started with rinsing the column for 1 min at 10% eluent B. Then, the organic content was linearly raised to 100% until the 11th minute. Subsequently, the column was purged with 100% eluent B for two additional minutes. Finally, the initial eluent composition was reset between minutes 13 and 13.5, followed by a 2 min re-equilibration under these conditions, resulting in a total run time of 15.5 min. Data acquisition and evaluation were performed with the software Skyline (v. 21.1.0.146, MacCoss Lab, Department of Genome Sciences, University of Washington, Seattle, WA, USA), XCalibur (v. 2.2SP1.48), and Chromeleon (v. 7.2.6.; both Thermo Fisher Scientific, Waltham, MA, USA).
As no analytical standards are currently available for the hydroxy (OH) metabolites of AOH and AME, an Alternaria reference mixture containing 4-OH-AOH and 4-OH-AME was used to enable associating peaks with their respective phase I metabolites.

[2] = tested on: esophageal cells; parameters: method as in PMID 27422292; conditions: cited from earlier work
[3] = Phase I metabolism kinetics (parent toxin loss) in NADPH-fortified porcine liver microsomes, LC-MS/MS; assay type: in vitro ADME, pig; conditions: for microsomal CLint: female, Large White, pig, liver microsomes, pH 7.4, porcine LMs, read-out: CLint (intrinsic clearance); for Concentration decrease: porcine LMs
Protocol: (§2) Pooled human LMs and pooled Sprague–Dawley rat hepatic microsomes, both originating from male donors, were purchased from Sigma-Aldrich (St. Louis, MO, USA) and Gibco, Thermo Fisher Scientific (Waltham, MA, USA), respectively. Porcine LMs were prepared according to an in-house-developed protocol based on the publication of Knights et al.[32] The liver of an approximately four-month-old female “Large White” (or “German Edelschwein”) pig was obtained from a local slaughterhouse. After slaughtering, the liver was placed on ice for about an hour, kept in ice-cold 50 mM tris(hydroxymethyl)aminomethane hydrochloride (Tris–HCl) (pH 7.4) for an additional hour while being transported, and processed immediately.
as §1
(§3) The quantification of selected analytes using external calibration (MS parameters listed in Supporting Information Table S1) was conducted on a high-performance liquid chromatographic system (Dionex UltiMate 3000 UHPLC, Dionex Softron GmbH, Germering, Germany) coupled to a triple quadrupole mass spectrometer (TSQ Vantage, Thermo Fisher Scientific, Waltham, MA, USA), equipped with a heated electrospray ionization (ESI) interface. The applied analytical method is based on Puntscher et al.[28],[36] with slight modifications, which are specified below.
(§4) In brief, the Ascentis Express C18 column (10 cm × 2.1 mm, 2.7 μm, Supelco, Munich, DE), equipped with the Phenomenex SecurityGuard (C18 Cartridges, 4 × 2.0 mm ID, Phenomenex Ltd. Deutschland, Aschaffenburg, Germany), served as the stationary phase. Eluent A was aqueous ammonium acetate (5 mM, pH adjusted to 8.6 with a 25% ammonia solution), and eluent B was methanol. During the first minute, the column was kept at 30% eluent B. Subsequently, the eluent B content was linearly raised to 100% within 6 min. Thereafter, the column was washed with 100% eluent B for 1.5 min. Lastly, the column was re-equilibrated at the initial conditions, reaching an overall run time of 10 min. The autosampler compartment was kept at 10 °C, while the column oven temperature was maintained at 30 °C. […]

[4] = Phase I metabolism kinetics (parent toxin loss) in NADPH-fortified rat liver microsomes, LC-MS/MS; assay type: in vitro ADME, Sprague–Dawley rat; conditions: for microsomal CLint: male, Sprague-Dawley, rat, liver microsomes, pH 7.4, rat LMs, read-out: CLint (intrinsic clearance); for Concentration decrease: rat LMs
Protocol: as §2, §1, §3, §4

[5] = Phase I metabolism kinetics (parent toxin loss) in NADPH-fortified human liver microsomes, LC-MS/MS; assay type: in vitro ADME; conditions: for microsomal CLint: human, pH 7.4, human LMs, read-out: CLint (intrinsic clearance)
Protocol: as §2, §1, §3, §4

[6] = oral administration, rats; cited from earlier work
[7] = Caco-2 cell monolayers; cited from earlier work
[8] = Pattern of oxidative metabolites in rat LMs by HR-MS; assay type: in vitro ADME, Sprague–Dawley rat; conditions: rat LMs incubated with AME
Protocol: The kinetics of the phase I metabolism of AOH and AME was investigated by incubating human, rat (both 1 mg protein/mL), and porcine LMs (2 mg protein/mL) with 1, 10, 20, 50, and 100 μM AOH or 1, 10, 20, and 50 μM AME based on the protocol by Al-Subeihi et al.[34] The incubation solution contained a final concentration of 3 mM NADPH and 1 mM ascorbic acid in 200 mM Tris–HCl (pH 7.4). After preincubation (37 °C, 1 min, mixing at 250–300 rpm), the toxin stock was added in a 1:100 dilution, resulting in a total DMSO content of 1% and the desired toxin concentration. DMSO was selected for this assay because it is the least inhibitory of the solvents studied by Busby et al. on CYP1A1,[35] the primary enzyme involved in the hydroxylation of AOH and AME.[26] The well-established solubility of the test compounds in DMSO and DMSO-containing aqueous buffers facilitated laboratory work and ensured consistency with existing literature, thereby improving the comparability of results across studies, including those of Pfeiffer and colleagues.[25] […]
Pooled high-resolution MS (HR-MS) samples were analyzed on a Vanquish UHPLC system (Thermo Fisher Scientific, Waltham, MA, USA) connected to a dual-pressure linear trap-quadrupole Orbitrap mass analyzer (Velos ETD, Thermo Fisher Scientific, Waltham, MA, USA). […]

[9] = Pattern of oxidative metabolites in human LMs by HR-MS; assay type: in vitro ADME; conditions: human LMs incubated with AME
Protocol: as §1
Pooled high-resolution MS (HR-MS) samples were analyzed on a Vanquish UHPLC system (Thermo Fisher Scientific, Waltham, MA, USA) connected to a dual-pressure linear trap-quadrupole Orbitrap mass analyzer (Velos ETD, Thermo Fisher Scientific, Waltham, MA, USA). The heated ESI interface (source heater temperature: 400 °C) was operated in both positive and negative modes. The mobile and stationary phases were the same as those for the targeted analysis. The column compartment temperature was kept at 40 °C. A multistep gradient was applied at a flow rate of 0.4 mL/min and started with rinsing the column for 1 min at 10% eluent B. Then, the organic content was linearly raised to 100% until the 11th minute. Subsequently, the column was purged with 100% eluent B for two additional minutes. […]

[10] = Michaelis–Menten model, ratio Vmax/Km
[11] = linear regression, lower concentration range
[12] = 10 min incubation with 10 μM AME

Cc1cc(O)c(O)c2oc(=O)c3c(O)cc(O)cc3c12 [4-OH-AOH]
relative abundance among phase I metabolites (in words) ([1]; porcine LMs incubated with AOH): primary oxidative metabolite
Relative peak area of oxidative metabolite ([1]; 10 min incubation with 10 μM AOH): 50%
genotoxic effects compared with parent compound [2]: less pronounced genotoxic effects

COc1cc(O)c2c(=O)oc3cc(O)cc(C)c3c2c1 [AME, alternariol 9-O-monomethyl ether]
microsomal CLint [3, 10]: 19.5 µL/min/mg
microsomal CLint [3, 11]: 19 µL/min/mg
Concentration decrease ([3]; 1 µM toxin, 5 min): 16%
Concentration decrease ([3]; 1 µM toxin, 10 min): 38%
Concentration decrease ([3]; 10 µM toxin, 5 min): 13%
Concentration decrease ([3]; 10 µM toxin, 10 min): 24%
Concentration decrease ([3]; 20 µM toxin, 5 min): 19%
Concentration decrease ([3]; 20 µM toxin, 10 min): 30%
Concentration decrease ([3]; 50 µM toxin, 5 min): 20%
Concentration decrease ([3]; 50 µM toxin, 10 min): 27%
microsomal CLint [4, 10]: 45.2 µL/min/mg
microsomal CLint [4, 11]: 46.2 µL/min/mg
Concentration decrease ([4]; 1 µM toxin, 5 min): 28%
Concentration decrease ([4]; 1 µM toxin, 10 min): 43%
Concentration decrease ([4]; 10 µM toxin, 5 min): 24%
Concentration decrease ([4]; 10 µM toxin, 10 min): 48%
Concentration decrease ([4]; 20 µM toxin, 5 min): 20%
Concentration decrease ([4]; 20 µM toxin, 10 min): 48%
Concentration decrease ([4]; 50 µM toxin, 5 min): 17%
Concentration decrease ([4]; 50 µM toxin, 10 min): 48%
Concentration decrease ([5]; human LMs, 1 µM toxin, 5 min): 35%
Concentration decrease ([5]; human LMs, 1 µM toxin, 10 min): 59%
Concentration decrease ([5]; human LMs, 10 µM toxin, 5 min): 26%
Concentration decrease ([5]; human LMs, 10 µM toxin, 10 min): 19%
Concentration decrease ([5]; human LMs, 20 µM toxin, 5 min): 8%
Concentration decrease ([5]; human LMs, 20 µM toxin, 10 min): 26%
Concentration decrease ([5]; human LMs, 50 µM toxin, 5 min): 2%
Concentration decrease ([5]; human LMs, 50 µM toxin, 10 min): 47%
Vmax (maximum transformation rate) ([5]; human LMs, within 10 min, Michaelis–Menten model): 772 pmol/mg/min
microsomal CLint ([5]; male, liver microsomes, Michaelis–Menten model, ratio Vmax/Km): 26.3 µL/min/mg
microsomal CLint ([5]; male, liver microsomes, linear regression, lower concentration range): 15.8 µL/min/mg
Km ([5]; male, liver microsomes, pH 7.4, human LMs 1 mg protein/mL, NADPH, within 10 min, Michaelis–Menten model, read-out: Km (Michaelis constant)): 29.4 µM
absorbed fraction [6]: less than 10%
intestinal absorption [7]: limited intestinal absorption

Cc1cc(O)cc2oc(=O)c3c(O)c(O)c(O)cc3c12 [8-OH-AOH]
relative abundance among phase I metabolites (in words) ([1]; porcine LMs incubated with AOH): small amounts

COc1cc2c(c(O)c1O)c(=O)oc1cc(O)cc(C)c12 [8-OH-AME]
relative abundance among phase I metabolites (in words) [8]: main metabolites
relative abundance among phase I metabolites (in words) [9]: small amounts

COc1cc(O)c2c(=O)oc3c(O)c(O)cc(C)c3c2c1 [4-OH-AME]
Relative peak area of oxidative metabolite [1, 12]: less than 20%
relative abundance among phase I metabolites (in words) [9]: most abundant
genotoxic effects compared with parent compound [2]: less pronounced genotoxic effects

COc1cc(O)c2c(=O)oc3cc(O)c(O)c(C)c3c2c1 [2-OH-AME]
relative abundance among phase I metabolites (in words) ([1]; porcine LMs incubated with AME): main metabolites
Relative peak area of oxidative metabolite [1, 12]: 30%
relative abundance among phase I metabolites (in words) [9]: most abundant
